Source: ChEMBL document CHEMBL3297661, “1-Substituted-5-[(3,5-dinitrobenzyl)sulfanyl]-1H-tetrazoles and their isosteric analogs: A new class of selective antitubercular agents active against drug-susceptible and multidrug-resistant mycobacteria” (Eur J Med Chem, 2014)
Values after ≈ are worked out from the molar mass of the structure shown.

System: not listed separately
Test: Cytotoxicity against MDCK2 cells assessed as reduction in cell viability after 48 hrs by MTT assay
Assay type: cell-based
Conditions: Canis lupus familiaris, MDCK-II

| SMILES | IC50 [µM] |
| --- | --- |
| O=[N+]([O-])c1cc(CSc2nnnn2Cc2ccccc2)cc([N+](=O)[O-])c1 | > 30 |

System: Klebsiella pneumoniae
Test: Antibacterial activity against extended spectrum beta-lactamase producing Klebsiella pneumoniae J 14368/08 after 24 hrs by broth microdilution method
Assay type: functional
Conditions: J 14368/08, 24 h

| SMILES | IC95 [µM] |
| --- | --- |
| O=[N+]([O-])c1cc(CSc2nnnn2Cc2ccccc2)cc([N+](=O)[O-])c1 | > 500 |

System: Escherichia coli
Test: Antibacterial activity against Escherichia coli ATCC 8739 after 24 hrs by broth microdilution method
Assay type: functional
Conditions: ATCC 8739, ATCC 8739, 24 h

| SMILES | IC95 [µM] |
| --- | --- |
| O=[N+]([O-])c1cc(CSc2nnnn2Cc2ccccc2)cc([N+](=O)[O-])c1 | > 500 |

System: HeLa
Test: Cytotoxicity against human HeLa cells assessed as reduction in cell viability after 48 hrs by MTT assay
Assay type: cell-based
Conditions: not given

| SMILES | IC50 [µM] |
| --- | --- |
| O=[N+]([O-])c1cc(CSc2nnnn2Cc2ccccc2)cc([N+](=O)[O-])c1 | > 30 |

System: not listed separately
Test: Cytotoxicity against human HuH7 cells assessed as reduction in cell viability after 48 hrs by MTT assay
Assay type: cell-based
Conditions: Huh-7, 48 h

| SMILES | IC50 [µM] |
| --- | --- |
| O=[N+]([O-])c1cc(CSc2nnnn2Cc2ccccc2)cc([N+](=O)[O-])c1 | > 30 |

System: Staphylococcus aureus
Test: Antibacterial activity against Staphylococcus aureus ATCC 6538 after 48 hrs by broth microdilution method
Assay type: functional
Conditions: ATCC 6538, 48 h

| SMILES | IC95 [µM] |
| --- | --- |
| O=[N+]([O-])c1cc(CSc2nnnn2Cc2ccccc2)cc([N+](=O)[O-])c1 | > 500 |

System: Klebsiella pneumoniae
Test: Antibacterial activity against Klebsiella pneumoniae D 11750/08 after 24 hrs by broth microdilution method
Assay type: functional
Conditions: D 11750/08, 24 h

| SMILES | IC95 [µM] |
| --- | --- |
| O=[N+]([O-])c1cc(CSc2nnnn2Cc2ccccc2)cc([N+](=O)[O-])c1 | > 500 |

System: Trichosporon asahii
Test: Antifungal activity against Trichosporon asahii 1188 after 24 hrs by broth microdilution method
Assay type: functional
Conditions: Trichosporon asahii, 1188, 24 h

| SMILES | IC80 [µM] |
| --- | --- |
| O=[N+]([O-])c1cc(CSc2nnnn2Cc2ccccc2)cc([N+](=O)[O-])c1 | > 500 |

System: Candida tropicalis
Test: Antifungal activity against Candida tropicalis 156 after 24 hrs by broth microdilution method
Assay type: functional
Conditions: Candida tropicalis, 156, 24 h

| SMILES | IC80 [µM] |
| --- | --- |
| O=[N+]([O-])c1cc(CSc2nnnn2Cc2ccccc2)cc([N+](=O)[O-])c1 | > 500 |

System: HepG2
Test: Cytotoxicity against human HepG2 cells assessed as reduction in cell viability after 48 hrs by MTT assay
Assay type: cell-based
Conditions: HepG2, 48 h

| SMILES | IC50 [µM] |
| --- | --- |
| O=[N+]([O-])c1cc(CSc2nnnn2Cc2ccccc2)cc([N+](=O)[O-])c1 | > 30 |

System: Enterococcus faecalis
Test: Antibacterial activity against Enterococcus faecalis J 14365/08 after 48 hrs by broth microdilution method
Assay type: functional
Conditions: J 14365/08, 48 h

| SMILES | IC95 [µM] |
| --- | --- |
| O=[N+]([O-])c1cc(CSc2nnnn2Cc2ccccc2)cc([N+](=O)[O-])c1 | > 500 |

System: Trichophyton mentagrophytes
Test: Antifungal activity against Trichophyton mentagrophytes 445 after 72 hrs by broth microdilution method
Assay type: functional, organism-based
Conditions: Trichophyton mentagrophytes, 445, 72 h

| SMILES | IC50 [µM] |
| --- | --- |
| O=[N+]([O-])c1cc(CSc2nnnn2Cc2ccccc2)cc([N+](=O)[O-])c1 | > 500 |

System: Mycobacterium kansasii
Test: Antimycobacterial activity against Mycobacterium kansasii 6509/96 after 7 days by micromethod
Assay type: functional
Conditions: 6509/96, 168 h

| SMILES | MIC [µM] |
| --- | --- |
| O=[N+]([O-])c1cc(CSc2nnnn2Cc2ccccc2)cc([N+](=O)[O-])c1 | 2 (≈ 0.745 µg/mL) |

System: Pseudomonas aeruginosa
Test: Antibacterial activity against Pseudomonas aeruginosa ATCC 9027 after 24 hrs by broth microdilution method
Assay type: functional
Conditions: ATCC 9027, 24 h

| SMILES | IC95 [µM] |
| --- | --- |
| O=[N+]([O-])c1cc(CSc2nnnn2Cc2ccccc2)cc([N+](=O)[O-])c1 | > 500 |

System: Pichia kudriavzevii
Test: Antifungal activity against Candida krusei E28 after 24 hrs by broth microdilution method
Assay type: functional
Conditions: E28, 24 h

| SMILES | IC80 [µM] |
| --- | --- |
| O=[N+]([O-])c1cc(CSc2nnnn2Cc2ccccc2)cc([N+](=O)[O-])c1 | > 500 |

System: Trichophyton mentagrophytes
Test: Antifungal activity against Trichophyton mentagrophytes 445 after 120 hrs by broth microdilution method
Assay type: functional, organism-based
Conditions: Trichophyton mentagrophytes, 445, 120 h

| SMILES | IC50 [µM] |
| --- | --- |
| O=[N+]([O-])c1cc(CSc2nnnn2Cc2ccccc2)cc([N+](=O)[O-])c1 | > 500 |

System: Enterococcus faecalis
Test: Antibacterial activity against Enterococcus faecalis J 14365/08 after 24 hrs by broth microdilution method
Assay type: functional
Conditions: J 14365/08, 24 h

| SMILES | IC95 [µM] |
| --- | --- |
| O=[N+]([O-])c1cc(CSc2nnnn2Cc2ccccc2)cc([N+](=O)[O-])c1 | > 500 |

System: Mycobacterium kansasii
Test: Antimycobacterial activity against Mycobacterium kansasii 6509/96 after 21 days by micromethod
Assay type: functional
Conditions: 6509/96, 504 h

| SMILES | MIC [µM] |
| --- | --- |
| O=[N+]([O-])c1cc(CSc2nnnn2Cc2ccccc2)cc([N+](=O)[O-])c1 | 4 (≈ 1.49 µg/mL) |

System: Mycobacterium kansasii
Test: Antimycobacterial activity against Mycobacterium kansasii CNCTC My 235/80 after 21 days by micromethod
Assay type: functional
Conditions: CNCTC My 235/80, 504 h

| SMILES | MIC [µM] |
| --- | --- |
| O=[N+]([O-])c1cc(CSc2nnnn2Cc2ccccc2)cc([N+](=O)[O-])c1 | 8 (≈ 2.98 µg/mL) |

System: Lichtheimia corymbifera
Test: Antifungal activity against Absidia corymbifera 272 after 24 hrs by broth microdilution method
Assay type: functional, organism-based
Conditions: Lichtheimia corymbifera, 272, 24 h

| SMILES | IC50 [µM] |
| --- | --- |
| O=[N+]([O-])c1cc(CSc2nnnn2Cc2ccccc2)cc([N+](=O)[O-])c1 | > 500 |

System: Aspergillus fumigatus
Test: Antifungal activity against Aspergillus fumigatus 231 after 24 hrs by broth microdilution method
Assay type: functional, organism-based
Conditions: Aspergillus fumigatus, 231, 24 h

| SMILES | IC50 [µM] |
| --- | --- |
| O=[N+]([O-])c1cc(CSc2nnnn2Cc2ccccc2)cc([N+](=O)[O-])c1 | > 500 |

System: not listed separately
Test: Cytotoxicity against human HepG2 cells assessed as cell viability at 30 uM after 48 hrs by MTT assay
Assay type: cell-based
Conditions: read-out: Activity

| SMILES | viability at 48 h, 30 µM [%] |
| --- | --- |
| O=[N+]([O-])c1cc(CSc2nnnn2Cc2ccccc2)cc([N+](=O)[O-])c1 | 94 |

System: Mycobacterium kansasii
Test: Antimycobacterial activity against Mycobacterium kansasii CNCTC My 235/80 after 14 days by micromethod
Assay type: functional
Conditions: CNCTC My 235/80, 336 h

| SMILES | MIC [µM] |
| --- | --- |
| O=[N+]([O-])c1cc(CSc2nnnn2Cc2ccccc2)cc([N+](=O)[O-])c1 | 8 (≈ 2.98 µg/mL) |

System: Klebsiella pneumoniae
Test: Antibacterial activity against Klebsiella pneumoniae D 11750/08 after 48 hrs by broth microdilution method
Assay type: functional
Conditions: D 11750/08, 48 h

| SMILES | IC95 [µM] |
| --- | --- |
| O=[N+]([O-])c1cc(CSc2nnnn2Cc2ccccc2)cc([N+](=O)[O-])c1 | > 500 |

System: Candida tropicalis
Test: Antifungal activity against Candida tropicalis 156 after 48 hrs by broth microdilution method
Assay type: functional
Conditions: Candida tropicalis, 156, 48 h

| SMILES | IC80 [µM] |
| --- | --- |
| O=[N+]([O-])c1cc(CSc2nnnn2Cc2ccccc2)cc([N+](=O)[O-])c1 | > 500 |
